# Measured values published in the supplement of paper PMC10307832.
# How the values were obtained:
# Experiment in all cases: relative viability (nuclei count vs DMSO), 5 days (fraction); higher = more cells survive
# [1] = compound: CC1=C(C(=O)N2C=CSC2=N1)CCN3CCC(=C(C4=CC=CC=C4)C5=CC=C(C=C5)F)CC3
# Procedure, shortened: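 Lung cancer cell lines were seeded into 1536-well plates, kept overnight at 37 °C and pinned with five library-drug doses (not always all listed) spaced by √10. After 5 days, nuclei were Hoechst-stained, imaged at 4× and counted with MetaXpress. Viability is treated-well nuclei over vehicle-well nuclei, taken as a median across plates. Plates needed control CV below 25% and at least one doubling.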
# [2] = compound: CC1=C(C(=O)N2C=CSC2=N1)CCN3CCC(=C(C4=CC=CC=C4)C5=CC=C(C=C5)F)CC3 + CC(=O)Nc1cccc(-n2c(=O)n(C3CC3)c(=O)c3c(Nc4ccc(I)cc4F)n(C)c(=O)c(C)c32)c1 [Trametinib] (partner 0.02 µM)
# Procedure, shortened: (§1)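 After 5 days of treatment, lung cancer cells in 1536-well plates were fixed and stained in a single step (final 0.05% Triton X-100, 1% formaldehyde, 1 ug/ml Hoechst) and their nuclei counted on 4× images. Treatment had been applied by pin tool the day after seeding as one drug alone or as a fixed anchor-drug dose with five library-drug doses (not always all listed) in √10 steps. Relative viability is the nuclei count of treated wells divided by that of vehicle wells, and values are medians of duplicate plates.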
# [3] = compound: CC1=C(C(=O)N2C=CSC2=N1)CCN3CCC(=C(C4=CC=CC=C4)C5=CC=C(C=C5)F)CC3 + CC(=O)c1c(C)c2cnc(Nc3ccc(N4CCNCC4)cn3)nc2n(C2CCCC2)c1=O [Palbociclib] (partner 0.5 µM)
# Procedure, shortened: as §1
# [4] = compound: CC1=C(C(=O)N2C=CSC2=N1)CCN3CCC(=C(C4=CC=CC=C4)C5=CC=C(C=C5)F)CC3 + CCNC(=O)c1noc(-c2cc(C(C)C)c(O)cc2O)c1-c1ccc(CN2CCOCC2)cc1 [Luminespib] (partner 0.01 µM)
# Procedure, shortened: as §1
# [5] = compound: CC1=C(C(=O)N2C=CSC2=N1)CCN3CCC(=C(C4=CC=CC=C4)C5=CC=C(C=C5)F)CC3 + COc1cc2c(Oc3ccc(NC(=O)C4(C(=O)Nc5ccc(F)cc5)CC4)cc3F)ccnc2cc1OCCCN1CCOCC1 [Foretinib] (partner 0.25 µM)
# Procedure, shortened: as §1
# [6] = compound: CC1=C(C(=O)N2C=CSC2=N1)CCN3CCC(=C(C4=CC=CC=C4)C5=CC=C(C=C5)F)CC3 + COc1cccc2cc(-c3nc([C@H]4CC[C@H](C(=O)O)CC4)n4ncnc(N)c34)[nH]c12 [OSI-027] (partner 0.5 µM)
# Procedure, shortened: as §1
# [7] = compound: CC1=C(C(=O)N2C=CSC2=N1)CCN3CCC(=C(C4=CC=CC=C4)C5=CC=C(C=C5)F)CC3 + Cc1cc(Nc2cc(N3CCN(C)CC3)nc(Sc3ccc(NC(=O)C4CC4)cc3)n2)n[nH]1 [Tozasertib] (partner 0.1 µM)
# Procedure, shortened: as §1
# [8] = compound: CC1=C(C(=O)N2C=CSC2=N1)CCN3CCC(=C(C4=CC=CC=C4)C5=CC=C(C=C5)F)CC3 + Cc1nc(Nc2ncc(C(=O)Nc3c(C)cccc3Cl)s2)cc(N2CCN(CCO)CC2)n1 [Dasatinib] (partner 0.075 µM)
# Procedure, shortened: as §1
# [9] = compound: CC1=C(C(=O)N2C=CSC2=N1)CCN3CCC(=C(C4=CC=CC=C4)C5=CC=C(C=C5)F)CC3 + N=C(N)NC(=N)NCCc1ccccc1 [Phenformin] (partner 250 µM)
# Procedure, shortened: as §1
# [10] = compound: CC1=C(C(=O)N2C=CSC2=N1)CCN3CCC(=C(C4=CC=CC=C4)C5=CC=C(C=C5)F)CC3 + NC(=O)Nc1cc(-c2cccc(F)c2)sc1C(=O)N[C@H]1CCCNC1 [AZD7762] (partner 0.2 µM)
# Procedure, shortened: as §1
# [11] = compound: CC1=C(C(=O)N2C=CSC2=N1)CCN3CCC(=C(C4=CC=CC=C4)C5=CC=C(C=C5)F)CC3 + Nc1nc2[nH]cc(CCc3ccc(C(=O)N[C@@H](CCC(=O)O)C(=O)O)cc3)c2c(=O)[nH]1 [Pemetrexed] (partner 0.2 µM)
# Procedure, shortened: as §1
# [12] = compound: CC1=C(C(=O)N2C=CSC2=N1)CCN3CCC(=C(C4=CC=CC=C4)C5=CC=C(C=C5)F)CC3 + Nc1ncn([C@H]2C[C@H](O)[C@@H](CO)O2)c(=O)n1 [Decitabine] (partner 2 µM)
# Procedure, shortened: as §1
# [13] = compound: CC1=C(C(=O)N2C=CSC2=N1)CCN3CCC(=C(C4=CC=CC=C4)C5=CC=C(C=C5)F)CC3 + O=C(CCCCCCC(=O)Nc1ccccc1)NO [Vorinostat] (partner 1 µM)
# Procedure, shortened: as §1
# [14] = compound: CC1=C(C(=O)N2C=CSC2=N1)CCN3CCC(=C(C4=CC=CC=C4)C5=CC=C(C=C5)F)CC3 + O=C(c1cc(Cc2n[nH]c(=O)c3ccccc23)ccc1F)N1CCN(C(=O)C2CC2)CC1 [Olaparib] (partner 8 µM)
# Procedure, shortened: as §1
cell line,measurement,setting,value
SW 900,relative viability,[1]; 0.08 µM,0.89
same,relative viability,[1]; 0.253 µM,1.02
same,relative viability,[1]; 0.8 µM,0.883
same,relative viability,[1]; 2.53 µM,1.04
same,relative viability,[1]; 8 µM,0.595
same,relative viability,[2]; first compound 0.08 µM,0.821
same,relative viability,[2]; first compound 0.253 µM,1.18
same,relative viability,[2]; first compound 0.8 µM,0.855
same,relative viability,[2]; first compound 2.53 µM,0.614
same,relative viability,[2]; first compound 8 µM,0.497
same,relative viability,[3]; first compound 0.08 µM,0.524
same,relative viability,[3]; first compound 0.253 µM,0.514
same,relative viability,[3]; first compound 0.8 µM,0.543
same,relative viability,[3]; first compound 2.53 µM,0.58
same,relative viability,[3]; first compound 8 µM,0.526
same,relative viability,[4]; first compound 0.08 µM,0.181
same,relative viability,[4]; first compound 0.253 µM,0.182
same,relative viability,[4]; first compound 0.8 µM,0.188
same,relative viability,[4]; first compound 2.53 µM,0.188
same,relative viability,[4]; first compound 8 µM,0.174
same,relative viability,[5]; first compound 0.08 µM,0.833
same,relative viability,[5]; first compound 0.253 µM,0.935
same,relative viability,[5]; first compound 0.8 µM,0.951
same,relative viability,[5]; first compound 2.53 µM,0.988
same,relative viability,[5]; first compound 8 µM,0.566
same,relative viability,[6]; first compound 0.08 µM,0.452
same,relative viability,[6]; first compound 0.253 µM,0.543
same,relative viability,[6]; first compound 0.8 µM,0.582
same,relative viability,[6]; first compound 2.53 µM,0.719
same,relative viability,[6]; first compound 8 µM,0.276
same,relative viability,[7]; first compound 0.08 µM,0.539
same,relative viability,[7]; first compound 0.253 µM,0.636
same,relative viability,[7]; first compound 0.8 µM,0.606
same,relative viability,[7]; first compound 2.53 µM,0.602
same,relative viability,[7]; first compound 8 µM,0.351
same,relative viability,[8]; first compound 0.08 µM,0.399
same,relative viability,[8]; first compound 0.253 µM,0.634
same,relative viability,[8]; first compound 0.8 µM,0.634
same,relative viability,[8]; first compound 2.53 µM,0.584
same,relative viability,[8]; first compound 8 µM,0.41
same,relative viability,[9]; first compound 0.08 µM,0.474
same,relative viability,[9]; first compound 0.253 µM,0.68
same,relative viability,[9]; first compound 0.8 µM,0.521
same,relative viability,[9]; first compound 2.53 µM,0.568
same,relative viability,[9]; first compound 8 µM,0.516
same,relative viability,[10]; first compound 0.08 µM,0.517
same,relative viability,[10]; first compound 0.253 µM,0.666
same,relative viability,[10]; first compound 0.8 µM,0.656
same,relative viability,[10]; first compound 2.53 µM,0.737
same,relative viability,[10]; first compound 8 µM,0.367
same,relative viability,[11]; first compound 0.08 µM,0.436
same,relative viability,[11]; first compound 0.253 µM,0.532
same,relative viability,[11]; first compound 0.8 µM,0.484
same,relative viability,[11]; first compound 2.53 µM,0.5
same,relative viability,[11]; first compound 8 µM,0.281
same,relative viability,[12]; first compound 0.08 µM,0.477
same,relative viability,[12]; first compound 0.253 µM,0.437
same,relative viability,[12]; first compound 0.8 µM,0.407
same,relative viability,[12]; first compound 2.53 µM,0.45
same,relative viability,[12]; first compound 8 µM,0.496
same,relative viability,[13]; first compound 0.08 µM,0.438
same,relative viability,[13]; first compound 0.253 µM,0.751
same,relative viability,[13]; first compound 0.8 µM,0.478
same,relative viability,[13]; first compound 2.53 µM,0.603
same,relative viability,[13]; first compound 8 µM,0.241
same,relative viability,[14]; first compound 0.08 µM,0.896
same,relative viability,[14]; first compound 0.253 µM,0.878
same,relative viability,[14]; first compound 0.8 µM,0.841
same,relative viability,[14]; first compound 2.53 µM,0.848
same,relative viability,[14]; first compound 8 µM,0.706
